Patent US20250129047A1, “ISOQUINOLINE DERIVATIVES AS MUTANT EGFR MODULATORS AND USES THEREOF” (NEWAVE PHARMACEUTICAL INC., priority 2021, published 2025)

Columns and labels:
Details in all cases: apparent IC50; 1.0 mM ATP or ATP Km; FL-Peptide 22 substrate; 25° C.
EGFR L858R = biological target: T1, EGFR L858R (Homo sapiens, UniProt P00533, L858R); assay: Biochemical EGFR inhibition assay (Caliper mobility shift), EGFR L858R
T1 construct: purchased SignalChem E10-122BG
Protocol: (§1) Inhibitory effects of the compounds of the disclosure were measured in biochemical assays that measure the phosphorylation activity of EGFR enzyme phosphorylates 2.5 micromolar 5-FAM-EEPLYWSFPAKKK-CONFF peptide substrate (FL-Peptide 22, PerkinElmer, 760366) in the presence of adenosine-5′-triphosphate (ATP) and varying concentrations of the test compound in 100 mM 2-[4-(2-hydroxyethyl)piperazin-1-yl]ethanesulfonic acid (HEPES), pH 7.5, 10 mM MgCE. 0.015% Brij-35, 1 mM dithiothreitol (DTT), 1.0% dimehylsulfoxide (DMSO). Assays were performed at 1.0 mM ATP or at ATP Km of the EGFR enzymes. Reactions proceeded until between 10% to 20% total peptides were phosphorylated at room temperature (25° C.) and were terminated with 35 mM 2,2′,2″,2″-(ethane-1,2-diyldinitrilo)tetraacetic acid (EDTA). Product was detected using the Caliper mobility shift detection method where the phosphorylated peptide (product) and substrate were electrophoretically separated and measured. Percent activity was plotted against log concentration of compound and points to generate an apparent IC50. […]

[1] = biological target: T2, EGFR (d746-750) T790M C797S (Homo sapiens, UniProt P00533, C797S/DEL746-750/T790M); assay: Biochemical EGFR inhibition assay (Caliper mobility shift), EGFR d746-750 T790M C797S
T2 construct: purchased SignalChem E10-122UG
Protocol: as §1

EGFR L858R T790M = EGFR L858R T790M (Homo sapiens, UniProt P00533, L858R/T790M); assay: Biochemical EGFR inhibition assay (Caliper mobility shift), EGFR L858R T790M
Protocol: as §1

EGFR d746-750 T790M = EGFR d746-750 T790M (Homo sapiens, UniProt P00533, DEL746-750/T790M); assay: Biochemical EGFR inhibition assay (Caliper mobility shift), EGFR d746-750 T790M
Protocol: as §1

EGFR (L858R T790M C797S) = biological target: T3, EGFR (L858R T790M C797S) (Homo sapiens, UniProt P00533, C797S/L858R/T790M); assay: Biochemical EGFR inhibition assay (Caliper mobility shift), EGFR L858R T790M C797S
T3 construct: purchased SignalChem E10-122VG
Protocol: as §1

T2 sequence (P00533 with tags, fused parts or gaps DEL746-750/T790M/C797S limits assumed): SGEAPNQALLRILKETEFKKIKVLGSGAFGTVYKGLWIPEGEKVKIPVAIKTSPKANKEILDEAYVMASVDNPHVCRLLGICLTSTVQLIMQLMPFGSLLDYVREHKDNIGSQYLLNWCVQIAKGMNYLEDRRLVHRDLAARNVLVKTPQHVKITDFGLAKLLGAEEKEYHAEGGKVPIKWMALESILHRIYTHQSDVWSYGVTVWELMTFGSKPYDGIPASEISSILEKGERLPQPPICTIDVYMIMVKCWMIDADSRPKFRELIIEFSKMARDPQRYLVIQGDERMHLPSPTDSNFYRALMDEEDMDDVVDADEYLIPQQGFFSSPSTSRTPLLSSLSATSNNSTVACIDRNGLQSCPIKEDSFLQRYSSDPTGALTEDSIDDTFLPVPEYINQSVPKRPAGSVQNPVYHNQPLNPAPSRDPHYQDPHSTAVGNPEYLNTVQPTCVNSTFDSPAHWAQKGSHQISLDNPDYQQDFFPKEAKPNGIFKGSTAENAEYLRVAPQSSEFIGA
T1 sequence (P00533 25-1210 L858R): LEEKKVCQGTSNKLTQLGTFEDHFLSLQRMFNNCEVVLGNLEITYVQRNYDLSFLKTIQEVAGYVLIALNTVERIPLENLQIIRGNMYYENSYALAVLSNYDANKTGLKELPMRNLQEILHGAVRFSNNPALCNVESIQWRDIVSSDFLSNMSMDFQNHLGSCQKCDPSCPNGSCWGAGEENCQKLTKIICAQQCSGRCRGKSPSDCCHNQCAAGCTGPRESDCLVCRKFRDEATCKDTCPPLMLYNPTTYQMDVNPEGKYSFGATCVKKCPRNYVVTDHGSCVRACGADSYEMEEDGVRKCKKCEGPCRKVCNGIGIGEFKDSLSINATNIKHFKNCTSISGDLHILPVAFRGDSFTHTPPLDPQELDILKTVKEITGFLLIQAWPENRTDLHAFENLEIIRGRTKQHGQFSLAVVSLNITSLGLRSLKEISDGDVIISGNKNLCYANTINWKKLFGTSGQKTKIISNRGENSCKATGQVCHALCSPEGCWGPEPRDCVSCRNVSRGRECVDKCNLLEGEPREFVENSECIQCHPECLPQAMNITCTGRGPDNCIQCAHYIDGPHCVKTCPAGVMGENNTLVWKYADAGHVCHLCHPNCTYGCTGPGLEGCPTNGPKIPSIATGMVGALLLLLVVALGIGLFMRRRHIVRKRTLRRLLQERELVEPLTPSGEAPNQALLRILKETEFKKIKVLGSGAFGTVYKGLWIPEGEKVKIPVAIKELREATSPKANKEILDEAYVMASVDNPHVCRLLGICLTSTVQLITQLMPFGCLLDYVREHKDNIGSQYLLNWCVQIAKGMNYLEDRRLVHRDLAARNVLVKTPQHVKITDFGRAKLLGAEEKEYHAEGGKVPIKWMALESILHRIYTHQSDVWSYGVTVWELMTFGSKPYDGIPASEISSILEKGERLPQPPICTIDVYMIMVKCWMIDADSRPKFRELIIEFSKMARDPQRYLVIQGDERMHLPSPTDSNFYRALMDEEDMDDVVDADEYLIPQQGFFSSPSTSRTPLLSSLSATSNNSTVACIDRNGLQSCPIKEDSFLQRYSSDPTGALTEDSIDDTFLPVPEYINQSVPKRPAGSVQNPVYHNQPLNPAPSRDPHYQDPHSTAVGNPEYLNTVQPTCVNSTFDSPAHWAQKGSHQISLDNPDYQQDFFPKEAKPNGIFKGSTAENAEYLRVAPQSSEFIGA
Sequence of EGFR d746-750 T790M (P00533 with tags, fused parts or gaps DEL746-750/T790M limits assumed): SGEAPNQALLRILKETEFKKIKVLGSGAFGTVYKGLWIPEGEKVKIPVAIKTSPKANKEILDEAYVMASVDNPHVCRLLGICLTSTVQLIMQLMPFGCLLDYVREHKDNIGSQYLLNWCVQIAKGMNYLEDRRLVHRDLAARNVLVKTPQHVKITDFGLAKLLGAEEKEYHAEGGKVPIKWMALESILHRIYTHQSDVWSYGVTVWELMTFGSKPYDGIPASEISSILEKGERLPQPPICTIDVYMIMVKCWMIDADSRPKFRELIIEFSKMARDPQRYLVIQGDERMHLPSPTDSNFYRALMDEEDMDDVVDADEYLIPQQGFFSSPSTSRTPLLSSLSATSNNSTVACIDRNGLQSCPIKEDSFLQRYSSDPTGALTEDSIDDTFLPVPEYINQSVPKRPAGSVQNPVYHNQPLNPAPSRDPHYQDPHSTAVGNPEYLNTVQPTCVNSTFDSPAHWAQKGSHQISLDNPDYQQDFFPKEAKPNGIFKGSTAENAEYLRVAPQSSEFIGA
T3 sequence (P00533 25-1210 T790M/C797S/L858R): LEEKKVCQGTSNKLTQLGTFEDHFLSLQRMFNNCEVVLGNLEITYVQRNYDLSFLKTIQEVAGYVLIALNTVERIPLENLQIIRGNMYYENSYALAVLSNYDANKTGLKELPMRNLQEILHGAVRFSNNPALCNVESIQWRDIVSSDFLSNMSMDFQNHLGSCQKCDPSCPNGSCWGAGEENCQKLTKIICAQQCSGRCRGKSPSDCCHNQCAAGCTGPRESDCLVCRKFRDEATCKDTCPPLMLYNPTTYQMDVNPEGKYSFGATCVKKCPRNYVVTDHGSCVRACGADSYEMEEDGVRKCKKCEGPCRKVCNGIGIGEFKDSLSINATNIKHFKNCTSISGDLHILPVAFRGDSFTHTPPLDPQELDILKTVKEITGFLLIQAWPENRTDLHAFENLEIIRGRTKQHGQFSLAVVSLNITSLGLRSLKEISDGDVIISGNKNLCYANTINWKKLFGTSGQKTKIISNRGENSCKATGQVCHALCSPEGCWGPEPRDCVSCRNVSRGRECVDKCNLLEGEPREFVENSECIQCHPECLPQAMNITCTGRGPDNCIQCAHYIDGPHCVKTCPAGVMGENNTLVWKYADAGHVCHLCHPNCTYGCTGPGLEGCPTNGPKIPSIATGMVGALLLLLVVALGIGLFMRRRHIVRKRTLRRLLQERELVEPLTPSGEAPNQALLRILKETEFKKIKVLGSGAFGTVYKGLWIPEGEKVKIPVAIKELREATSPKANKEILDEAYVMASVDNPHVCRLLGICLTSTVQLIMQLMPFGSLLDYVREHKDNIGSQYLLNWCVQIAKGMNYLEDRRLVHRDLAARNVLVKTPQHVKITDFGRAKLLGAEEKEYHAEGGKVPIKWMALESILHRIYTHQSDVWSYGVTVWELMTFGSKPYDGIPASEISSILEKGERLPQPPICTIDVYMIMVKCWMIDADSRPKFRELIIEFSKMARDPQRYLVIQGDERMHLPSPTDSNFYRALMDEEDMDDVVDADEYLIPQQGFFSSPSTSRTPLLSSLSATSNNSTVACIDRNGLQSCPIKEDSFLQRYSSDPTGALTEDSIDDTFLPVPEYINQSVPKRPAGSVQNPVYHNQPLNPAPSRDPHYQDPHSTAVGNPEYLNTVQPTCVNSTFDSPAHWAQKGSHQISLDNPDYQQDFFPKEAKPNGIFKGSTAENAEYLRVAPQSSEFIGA
Sequence of EGFR L858R T790M (P00533 25-1210 T790M/L858R): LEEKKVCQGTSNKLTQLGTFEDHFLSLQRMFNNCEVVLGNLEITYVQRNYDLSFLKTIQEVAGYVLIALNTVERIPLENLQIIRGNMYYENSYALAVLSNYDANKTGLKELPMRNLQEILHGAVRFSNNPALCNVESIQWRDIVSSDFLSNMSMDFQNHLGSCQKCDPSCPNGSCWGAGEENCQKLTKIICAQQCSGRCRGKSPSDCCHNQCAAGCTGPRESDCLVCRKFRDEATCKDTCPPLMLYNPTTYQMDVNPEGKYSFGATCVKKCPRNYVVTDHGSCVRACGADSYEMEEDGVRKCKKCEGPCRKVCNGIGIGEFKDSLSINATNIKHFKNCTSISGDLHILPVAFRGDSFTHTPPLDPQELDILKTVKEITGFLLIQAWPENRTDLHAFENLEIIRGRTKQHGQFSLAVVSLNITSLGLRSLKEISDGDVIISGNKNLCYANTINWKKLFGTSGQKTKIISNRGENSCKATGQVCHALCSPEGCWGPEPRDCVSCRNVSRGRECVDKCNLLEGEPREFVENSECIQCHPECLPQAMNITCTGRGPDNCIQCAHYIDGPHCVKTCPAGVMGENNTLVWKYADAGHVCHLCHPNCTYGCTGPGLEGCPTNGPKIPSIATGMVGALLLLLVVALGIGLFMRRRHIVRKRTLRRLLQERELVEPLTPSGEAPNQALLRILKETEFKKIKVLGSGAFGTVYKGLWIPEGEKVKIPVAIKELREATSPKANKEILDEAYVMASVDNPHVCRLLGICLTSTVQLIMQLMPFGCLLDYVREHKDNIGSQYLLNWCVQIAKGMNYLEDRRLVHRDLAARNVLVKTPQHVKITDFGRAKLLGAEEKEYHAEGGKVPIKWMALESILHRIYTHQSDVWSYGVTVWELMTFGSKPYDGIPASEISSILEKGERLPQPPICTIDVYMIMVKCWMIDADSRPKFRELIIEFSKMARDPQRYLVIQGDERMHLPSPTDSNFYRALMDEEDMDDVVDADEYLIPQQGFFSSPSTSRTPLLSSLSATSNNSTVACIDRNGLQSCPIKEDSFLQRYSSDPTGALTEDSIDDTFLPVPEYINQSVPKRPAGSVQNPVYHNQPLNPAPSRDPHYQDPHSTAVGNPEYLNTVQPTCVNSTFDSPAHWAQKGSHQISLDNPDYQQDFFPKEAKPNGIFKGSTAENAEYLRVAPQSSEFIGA

IC50 (EGFR L858R) [nM]	IC50 [1] [nM]	IC50 (EGFR L858R T790M) [nM]	IC50 (EGFR d746-750 T790M) [nM]	IC50 (EGFR (L858R T790M C797S)) [nM]	SMILES
100	2.3	–	–	–	C=CC(=O)N1CCC[C@H]1c1ccc(N2C[C@H](CS(C)(=O)=O)[C@H]2C)c2cnc(Nc3ccnc(N4CC[C@@H](OC)[C@@H](F)C4)n3)cc12 [Example 2, 1-[(2S)-2-[3-({2-[(3S,4R)-3-fluoro-4-methoxypiperidin-1-yl]pyrimidin-4-yl}amino)-8-[(2R,3S)-3-(methanesulfonylmethyl)-2-methylazetidin-1-yl]isoquinolin-5-yl]pyrrolidin-1-yl]prop-2-en-1-one]
1.5	0.15	0.29	0.88	0.69	C=CC(=O)N1CCC[C@@H]1c1ccc(N2C[C@H](CS(C)(=O)=O)[C@H]2C)c2cnc(Nc3ccnc(N4CC[C@@H](OC)[C@@H](F)C4)n3)cc12 [Example 3, 1-[(2R)-2-[3-({2-[(3S,4R)-3-fluoro-4-methoxypiperidin-1-yl]pyrimidin-4-yl}amino)-8-[(2R,3S)-3-(methanesulfonylmethyl)-2-methylazetidin-1-yl]isoquinolin-5-yl]pyrrolidin-1-yl]prop-2-en-1-one]
